For one test, the target named is T1, CDK2 (Homo sapiens, UniProt P24941).
T1 construct: HEK293 clonal lines with CRISPR KI HiBiT tag on CDK2 proteins; host or cells: HEK293 clonal line with CRISPR knock-in HiBiT on CDK2, stably expressing LgBiT
Briefly: CDK2 HiBiT assay (degradation, Dmax). It counts as cell-based. The conditions noted are these: HEK293 clonal lines with CRISPR KI HiBiT tag on CDK2, stably expressing LgBiT; 24 hours incubation. In short, it runs like this:
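HEK293 with endogenous HiBiT-tagged CDK2 and stable LgBiT, 5000 cells/well, treated 24 h at 37 °C (compound source plate 30 μM). Luminescence after HiBiT lysis reagent 15 min, normalized to plate controls; 3-parameter logistic fit (Hill slope 1) gives EC50 and Dmax.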
For orientation: With HiBiT, luminescence reflects the tagged protein that the partner subunit can reach.

In another test the target is CRBN-DDB1 (Homo sapiens, UniProt Q96SW2). Briefly: Compound binding to CRBN by HTRF assay. Particulars: CRBN-DDB1 2.5 nM, Cy5-Thalidomide 100 nM probe; Ki from geometric mean of IC50 by Cheng-Prustoff transformation. In a few lines: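 HTRF competition used 2.5 nM His-tagged CRBN-DDB1, anti-His terbium cryptate and 100 nM Cy5-thalidomide probe in 20 mM HEPES, 20 mM NaCl, 0.2 mM TCEP, 0.2 mM EDTA, 0.005% Tween20. Compounds ran as 10-point 1:3 series for 30 min at ambient temperature, with the 665/620 nm signal normalized to lenalidomide and DMSO controls. Ki came from geometric-mean IC50 by Cheng-Prusoff.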
A general note: Time-resolved FRET reads energy transfer from a long-lived donor to a nearby acceptor.

As usually defined, the Dmax is the greatest extent of degradation seen. Lower therefore signals a partial loss of target. For orientation: Ki means the equilibrium dissociation constant of an inhibitor or competing ligand from its target.

Sequence of CRBN-DDB1 (Q96SW2 whole entry): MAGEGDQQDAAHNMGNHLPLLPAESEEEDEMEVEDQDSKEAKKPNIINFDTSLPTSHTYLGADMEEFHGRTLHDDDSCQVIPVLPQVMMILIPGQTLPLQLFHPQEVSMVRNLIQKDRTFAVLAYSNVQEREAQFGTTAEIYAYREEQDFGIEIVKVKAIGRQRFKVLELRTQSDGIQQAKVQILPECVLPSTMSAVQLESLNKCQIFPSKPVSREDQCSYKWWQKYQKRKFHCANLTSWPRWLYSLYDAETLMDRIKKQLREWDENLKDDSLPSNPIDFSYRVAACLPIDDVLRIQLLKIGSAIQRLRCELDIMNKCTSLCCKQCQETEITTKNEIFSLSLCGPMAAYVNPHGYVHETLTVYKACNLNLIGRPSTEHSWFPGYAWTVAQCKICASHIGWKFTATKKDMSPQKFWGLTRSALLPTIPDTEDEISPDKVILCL
Sequence of CRBN-DDB1 (Q16531 whole entry partner): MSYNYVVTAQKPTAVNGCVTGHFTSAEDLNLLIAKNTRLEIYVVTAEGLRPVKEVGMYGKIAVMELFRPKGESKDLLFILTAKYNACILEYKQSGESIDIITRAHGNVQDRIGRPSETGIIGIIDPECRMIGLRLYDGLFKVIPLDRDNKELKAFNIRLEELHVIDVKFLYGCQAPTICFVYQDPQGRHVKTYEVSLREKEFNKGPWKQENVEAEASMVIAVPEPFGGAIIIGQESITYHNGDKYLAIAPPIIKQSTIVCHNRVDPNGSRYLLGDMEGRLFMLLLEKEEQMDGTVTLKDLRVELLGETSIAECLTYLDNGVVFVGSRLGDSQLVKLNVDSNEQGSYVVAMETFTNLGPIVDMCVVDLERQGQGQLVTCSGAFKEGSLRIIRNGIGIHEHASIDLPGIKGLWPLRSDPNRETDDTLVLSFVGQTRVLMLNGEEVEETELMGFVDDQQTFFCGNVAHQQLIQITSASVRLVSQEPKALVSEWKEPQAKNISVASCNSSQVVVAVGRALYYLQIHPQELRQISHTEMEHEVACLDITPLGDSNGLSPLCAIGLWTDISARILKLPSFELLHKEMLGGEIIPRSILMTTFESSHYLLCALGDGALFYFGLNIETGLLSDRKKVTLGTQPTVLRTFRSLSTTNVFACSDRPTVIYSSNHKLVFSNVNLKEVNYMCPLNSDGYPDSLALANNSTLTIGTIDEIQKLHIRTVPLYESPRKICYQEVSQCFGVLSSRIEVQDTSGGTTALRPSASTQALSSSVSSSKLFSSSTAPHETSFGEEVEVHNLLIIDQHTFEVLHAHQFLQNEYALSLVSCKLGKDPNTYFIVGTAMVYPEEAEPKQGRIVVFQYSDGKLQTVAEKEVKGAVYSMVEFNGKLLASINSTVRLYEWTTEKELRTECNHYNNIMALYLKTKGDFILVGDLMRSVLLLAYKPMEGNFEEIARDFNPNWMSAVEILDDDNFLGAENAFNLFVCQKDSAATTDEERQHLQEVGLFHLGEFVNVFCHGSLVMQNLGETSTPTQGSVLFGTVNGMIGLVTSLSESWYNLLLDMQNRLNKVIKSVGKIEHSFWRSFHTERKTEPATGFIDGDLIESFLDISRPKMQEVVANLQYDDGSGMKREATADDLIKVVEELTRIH

`O=C1CCC(N2Cc3ccc(CNC(=O)OCc4ccc(OC5CCOCC5)nc4)cc3C2=O)C(=O)N1` (stereo not shown) [Compound 65, [6-(oxan-4-yloxy)pyridin-3-yl]methyl N-{[2-(2,6-dioxopiperidin-3-yl)-3-oxo-2,3-dihydro-1H-isoindol-5-yl]methyl}carbamate] registered a Dmax at CDK2 of 10 to 50%. In addition, the Ki at CRBN-DDB1 was no more than 100 nM.

In turn, `O=C1CCC(N2Cc3ccc(CNC(=O)OCc4ccc(C(F)(F)F)nc4)cc3C2=O)C(=O)N1` (stereo not shown) [Compound 66, [6-(trifluoromethyl)pyridin-3-yl]methyl N-{[2-(2,6-dioxopiperidin-3-yl)-3-oxo-2,3-dihydro-1H-isoindol-5-yl]methyl}carbamate] displayed a maximal degradation (Dmax) at CDK2 of 10 to 50%. This compound also came in with a Ki on CRBN-DDB1 of no more than 100 nM.

Turning to `CCC(COC(=O)NCc1ccc2c(c1)C(=O)N(C1CCC(=O)NC1=O)C2)c1ccccc1` (stereo not shown) [Compound 67, 2-phenylbutyl N-{[2-(2,6-dioxopiperidin-3-yl)-3-oxo-2,3-dihydro-1H-isoindol-5-yl]methyl}carbamate], at CDK2, the maximal degradation (Dmax) fell in the range of 10 to 50%. The same compound displayed a Ki on CRBN-DDB1 of 100 to 1000 nM.

`CC[C@H](Cc1ccccc1)OC(=O)NCc1ccc2c(c1)C(=O)N(C1CCC(=O)NC1=O)C2` (stereo partly drawn) [Compound 68, (2R)-1-phenylbutan-2-yl N-{[2-(2,6-dioxopiperidin-3-yl)-3-oxo-2,3-dihydro-1H-isoindol-5-yl]methyl}carbamate]: at CDK2, the Dmax is no more than 10%. This compound also had a Ki at CRBN-DDB1 of 100 to 1000 nM.

At CDK2, `O=C1CCC(N2Cc3ccc(CNC(=O)OCc4ccc(OC(F)(F)F)cc4)cc3C2=O)C(=O)N1` (stereo not shown) [Compound 69, 4-(trifluoromethoxy)benzyl ((2-(2,6-dioxopiperidin-3-yl)-3-oxoisoindolin-5-yl)methyl)carbamate] showed a Dmax of 10 to 50%. Moreover, the Ki on CRBN-DDB1 lay in the range of 100 to 1000 nM.

As to `N#Cc1cc(CNc2nnc(-c3ccccc3)o2)cc2c1CN(C1CCC(=O)NC1=O)C2=O` (stereo not shown) [Compound 70, 2-(2,6-dioxopiperidin-3-yl)-1-oxo-6-(((5-phenyl-1,3,4-oxadiazol-2-yl)amino)methyl)isoindoline-4-carbonitrile], the Dmax on CDK2 lay in the range of 10 to 50%. On CRBN-DDB1, this compound showed a Ki of 100 to 1000 nM.

Compound `O=C1CCC(N2Cc3ccc(CNc4nnc(-c5ccc(OC(F)(F)F)cc5)o4)cc3C2=O)C(=O)N1` (stereo not shown) [Compound 71, 3-(1-oxo-6-(((5-(4-(trifluoromethoxy)phenyl)-1,3,4-oxadiazol-2-yl)amino)methyl)isoindolin-2-yl)piperidine-2,6-dione] gave a Dmax at CDK2 of 50 to 80%. For the same compound, the Ki on CRBN-DDB1 lay in the range of 100 to 1000 nM.

`O=C1CCC(N2Cc3ccc(CNc4nnc(-c5ccccc5)o4)cc3C2=O)C(=O)N1` (stereo not shown) [Compound 72, 3-(1-oxo-6-(((5-phenyl-1,3,4-oxadiazol-2-yl)amino)methyl)isoindolin-2-yl)piperidine-2,6-dione] yielded a Dmax on CDK2 of 10 to 50%. The Ki at CRBN-DDB1 is no more than 100 nM.

In turn, `O=C1CCC(N2Cc3c(Cl)cc(CNc4nnc(-c5ccc(OC(F)(F)F)cc5)o4)cc3C2=O)C(=O)N1` (stereo not shown) [Compound 73, 3-(4-chloro-1-oxo-6-(((5-(4-(trifluoromethoxy)phenyl)-1,3,4-oxadiazol-2-yl)amino)methyl)isoindolin-2-yl)piperidine-2,6-dione] gave a Dmax on CDK2 of 50 to 80%. Moreover, the inhibition constant Ki on CRBN-DDB1 is no more than 100 nM.

At CDK2, `N#Cc1cc(CNc2nnc(-c3ccc(OC(F)(F)F)cc3)o2)cc2c1CN(C1CCC(=O)NC1=O)C2=O` (stereo not shown) [Compound 74, 2-(2,6-dioxopiperidin-3-yl)-1-oxo-6-(((5-(4-(trifluoromethoxy)phenyl)-1,3,4-oxadiazol-2-yl)amino)methyl)isoindoline-4-carbonitrile] had a Dmax of 10 to 50%. The compound also registered a Ki on CRBN-DDB1 of 100 to 1000 nM.

For the compound `O=C1CCC(N2Cc3ccc(CNc4nnc(-c5ccc(OC(F)(F)F)cc5)o4)c(O)c3C2=O)C(=O)N1` (stereo not shown) [Compound 75, 3-(7-hydroxy-1-oxo-6-(((5-(4-(trifluoromethoxy)phenyl)-1,3,4-oxadiazol-2-yl)amino)methyl)isoindolin-2-yl)piperidine-2,6-dione], the Dmax at CDK2 lay within 10 to 50%. Further, on CRBN-DDB1, the Ki lay within 100 to 1000 nM.

Values taken from patent publication US20240299559A1, “COMPOUNDS THAT MEDIATE PROTEIN DEGRADATION AND METHODS OF USE THEREOF” (Monte Rosa Therapeutics, Inc., priority 2021, published 2024).
